# US9556153B1, “JAK1 inhibitors” (Eli Lilly and Company, priority 2015, dated 2017)
# How the values were obtained:
# JAK3 = biological target: T1, JAK3 (Homo sapiens, UniProt P52333); assay: JAK LanthaScreen Kinase Assay (TR-FRET), JAK3 in vitro enzyme assay; format: biochemical; conditions: ATP 20.0 μM; n=6
# T1 construct: purchased Invitrogen
# T1 sequence (P52333 1-1124): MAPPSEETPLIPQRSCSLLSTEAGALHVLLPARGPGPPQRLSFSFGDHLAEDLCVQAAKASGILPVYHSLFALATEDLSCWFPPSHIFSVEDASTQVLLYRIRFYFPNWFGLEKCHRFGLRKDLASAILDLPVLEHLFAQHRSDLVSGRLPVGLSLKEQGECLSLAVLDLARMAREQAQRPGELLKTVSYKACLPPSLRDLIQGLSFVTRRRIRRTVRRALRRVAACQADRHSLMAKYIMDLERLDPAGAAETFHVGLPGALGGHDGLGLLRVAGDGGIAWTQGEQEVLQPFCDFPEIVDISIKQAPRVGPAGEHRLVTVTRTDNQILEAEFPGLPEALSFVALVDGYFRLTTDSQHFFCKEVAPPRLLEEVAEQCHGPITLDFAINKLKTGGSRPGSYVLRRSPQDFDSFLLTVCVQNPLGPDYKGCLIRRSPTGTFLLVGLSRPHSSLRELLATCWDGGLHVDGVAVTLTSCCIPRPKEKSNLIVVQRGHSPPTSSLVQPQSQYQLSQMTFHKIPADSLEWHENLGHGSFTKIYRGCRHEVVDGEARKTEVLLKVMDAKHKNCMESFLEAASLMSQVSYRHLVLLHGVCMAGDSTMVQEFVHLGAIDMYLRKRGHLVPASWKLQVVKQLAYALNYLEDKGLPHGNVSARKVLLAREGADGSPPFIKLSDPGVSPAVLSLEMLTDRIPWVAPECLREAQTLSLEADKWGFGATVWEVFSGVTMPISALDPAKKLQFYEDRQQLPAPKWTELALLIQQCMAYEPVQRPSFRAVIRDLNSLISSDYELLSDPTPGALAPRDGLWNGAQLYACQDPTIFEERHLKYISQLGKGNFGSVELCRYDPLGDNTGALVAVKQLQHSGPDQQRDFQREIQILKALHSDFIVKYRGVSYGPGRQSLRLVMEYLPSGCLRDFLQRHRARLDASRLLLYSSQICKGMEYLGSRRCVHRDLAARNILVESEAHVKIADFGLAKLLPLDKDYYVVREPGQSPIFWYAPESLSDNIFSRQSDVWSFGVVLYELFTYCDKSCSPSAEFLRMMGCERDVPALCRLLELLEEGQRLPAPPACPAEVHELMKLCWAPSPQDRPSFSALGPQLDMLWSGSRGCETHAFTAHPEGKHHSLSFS
# From the text: (§1) JAK1, JAK2 and JAK3 In Vitro Enzyme Assays
# (§2) The JAK LanthaScreen™ Kinase Assay (Invitrogen) is used to determine the ability of test compounds to inhibit JAK1, JAK2 and JAK3 kinase activity. These are TR-FRET assay formats that use long-lifetime terbium labeled antibody as the donor species and GFP-STAT1 as the acceptor species. Use the TR-FRET ratio to monitor JAK kinase activity where an increase in phosphorylation of the GFP-STAT1 results in an increase in the TR-FRET ratio. Perform the kinase reaction using a 12.5 μl reaction volume in shallow black 384-well Proxiplate. Add reagents to obtain final reaction conditions of […] HEPES pH, 1.76 mM Triton X-100, ATP (20.0 μM for JAK1 and JAK3 or 5 μM for JAK2) enzyme assays, 10.0 mM MgCl2, 1 mM EGTA and 0.01% Brij-35, 0.05 mM GFP-STAT1, 14 nM JAK1 enzyme for JAK1, 1.0 nM for JAK2 or 2.5 nM for JAK3 enzyme assays, and 4% DMSO and serial dilutions of test compound (diluted 1:3 from 20,000 to 1 nM). Following ATP/GFP-STAT1 addition, centrifuge the assay plates for 1 minute at 1000 revolutions per minute (RPM). Allow the plates to incubate at RT for 60 minutes and then add 12.5 μl of a stopping buffer containing 20 mM EDTA, 2 nM Terbium-anti-phosphorylated Signal Transducers and Activators of Transcription [phosphorylation Tyrosine 701 amino acid] […]
# JAK2 = JAK2 (Homo sapiens, UniProt O60674); assay: JAK LanthaScreen Kinase Assay (TR-FRET), JAK2 in vitro enzyme assay; format: biochemical; set-up: purchased Invitrogen; conditions: ATP 5 μM; n=6
# Sequence of JAK2 (O60674 whole entry): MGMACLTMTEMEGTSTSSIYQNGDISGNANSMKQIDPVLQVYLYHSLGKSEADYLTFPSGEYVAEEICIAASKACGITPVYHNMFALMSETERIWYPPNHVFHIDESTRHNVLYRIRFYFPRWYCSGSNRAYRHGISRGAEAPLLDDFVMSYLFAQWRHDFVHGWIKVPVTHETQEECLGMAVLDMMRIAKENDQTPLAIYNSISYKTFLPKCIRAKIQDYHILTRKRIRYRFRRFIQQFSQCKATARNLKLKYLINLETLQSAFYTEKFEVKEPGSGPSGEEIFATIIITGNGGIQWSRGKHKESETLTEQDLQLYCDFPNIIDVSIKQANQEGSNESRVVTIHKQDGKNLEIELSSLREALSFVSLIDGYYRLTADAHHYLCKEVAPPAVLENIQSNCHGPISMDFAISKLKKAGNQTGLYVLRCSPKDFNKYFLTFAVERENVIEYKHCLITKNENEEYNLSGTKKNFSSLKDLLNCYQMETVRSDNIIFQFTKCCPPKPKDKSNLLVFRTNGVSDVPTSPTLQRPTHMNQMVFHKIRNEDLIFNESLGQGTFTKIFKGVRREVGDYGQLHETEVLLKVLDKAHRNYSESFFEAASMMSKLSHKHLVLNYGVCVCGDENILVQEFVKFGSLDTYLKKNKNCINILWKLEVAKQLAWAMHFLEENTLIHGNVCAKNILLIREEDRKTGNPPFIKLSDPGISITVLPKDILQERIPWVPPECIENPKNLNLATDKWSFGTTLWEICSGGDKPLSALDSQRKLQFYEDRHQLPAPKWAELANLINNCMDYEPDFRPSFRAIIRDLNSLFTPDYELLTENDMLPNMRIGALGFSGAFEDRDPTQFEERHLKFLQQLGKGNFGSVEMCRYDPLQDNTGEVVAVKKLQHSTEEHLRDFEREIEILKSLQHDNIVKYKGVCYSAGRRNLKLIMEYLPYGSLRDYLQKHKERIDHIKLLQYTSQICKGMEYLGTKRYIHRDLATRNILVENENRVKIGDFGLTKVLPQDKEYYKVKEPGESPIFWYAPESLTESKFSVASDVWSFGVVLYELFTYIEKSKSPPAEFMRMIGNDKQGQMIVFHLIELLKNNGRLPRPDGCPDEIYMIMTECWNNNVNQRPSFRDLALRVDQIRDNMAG
# From the text: as §1, §2
structure (smiles),measurement,setting,value
"Cc1cc(Nc2cc(O[C@H]3CC[C@@H](NC[C@@H](O)C(F)(F)F)CC3)cc3c2ncn3C)nn1C [Example 1, (2R)-3-{[cis-4-({4-[(1,5-Dimethyl-1H-pyrazol-3-yl)amino]-1-methyl-1H-benzimidazol-6-yl}oxy)cyclohexyl]amino}-1,1,1-trifluoropropan-2-ol]",IC50,JAK3,1910 ± 786 nM
same,IC50,JAK2,557 ± 337 nM
